Source: ChEMBL document CHEMBL5346936, “Functionalized sulfonyl anthranilic acid derivatives inhibit replication of all the four dengue serotypes” (Eur J Med Chem, 2023)
Calls of active or inactive are those of the source. No cut-off for these calls is given here.

Assays:
[1] = test system: dengue virus type 2; test: Antiviral activity against DENV-2 EDEN 3295 infected in 10^5 human Huh-7 cells at 0.3 MOI for 1 hr followed by compound treatment for 48 hrs; assay type: functional, organism-based; conditions: EDEN 3295, Huh-7
[2] = Selectivity index, ratio of CC50 for human Huh-7 cells to EC50 for antiviral activity against DENV-2 EDEN 3295; assay type: toxicity; conditions: read-out: Ratio CC50/EC50
[3] = Cytotoxicity against human Huh-7 cells treated for 48 hrs measured by celltitre-glo luminescent assay; assay type: toxicity, cell-based
[4] = test system: dengue virus type 2; test: Antiviral activity against DENV-2 EDEN 3295 infected in 10^5 human Huh-7 cells at 0.3 MOI for 1 hr followed by compound treatment at 10 uM for 48 hrs relative to control; assay type: functional
[5] = test system: dengue virus type 2; test: Inhibition of DENV-2 NS5 polymerase incubated for 1 hr measured at 30 uM by fluorescence based alkaline phosphate coupled polymerase assay
[6] = test system: dengue virus type 2; test: (§1) Inhibition of DENV-2 NS5 polymerase incubated for 1 hr measured by fluorescence based alkaline phosphate coupled polymerase assay
[7] = test system: dengue virus type 2; test: Antiviral activity against DENV-2 infected with human A549 cells; assay type: functional, organism-based
[8] = Cytotoxicity against human Calu-1 cells; assay type: toxicity, cell-based
[9] = test system: dengue virus type 2; test: Antiviral activity against DENV-2 infected in human Huh-7 cells at MOI 1 assessed as log reduction of intracellular viral titre at 10 uM measured after 60 hrs post infection by RT-PCR analysis; assay type: functional
[10] = test system: dengue virus type 2; test: Antiviral activity against DENV-2 infected with asian tiger mosquito C6/36 cells; assay type: functional, organism-based
[11] = test system: dengue virus type 2; test: Antiviral activity against DENV-2 infected with human Calu-1 cells; assay type: functional, organism-based
[12] = Cytotoxicity against asian tiger mosquito C6/36 cells; assay type: toxicity, cell-based; conditions: aedes albopictus
[13] = test system: dengue virus type 2; test: Antiviral activity against DENV-2 infected in human Huh-7 cells at MOI 1 assessed as reduction of intracellular viral titre at 10 uM, 2 hr prior to infection measured after 48 hrs measured by RT-PCR analysis; assay type: functional, organism-based; conditions: time 50.0 hrs
[14] = test system: dengue virus type 2; test: Antiviral activity against DENV-2 infected with green monkey Vero cells; assay type: functional, organism-based
[15] = Cytotoxicity against green monkey Vero cells; assay type: toxicity, cell-based; conditions: chlorocebus sabaeus
[16] = Cytotoxicity against human Huh-7 cells; assay type: toxicity, cell-based
[17] = Cytotoxicity against human A549 cells; assay type: toxicity, cell-based
[18] = test system: dengue virus type 2; test: Antiviral activity against DENV-2 infected in human Huh-7 cells at MOI 1 assessed as reduction of intracellular viral titre at 10 uM measured after 24 hrs post infection by RT-PCR analysis; assay type: functional, organism-based
[19] = test system: dengue virus type 2; test: Antiviral activity against DENV-2 infected in human Huh-7 cells assessed as reduction of viral protein NS5 expression at 10 uM for 12 hrs post infection by RT-PCR analysis; assay type: functional, organism-based
[20] = test system: dengue virus type 2; test: Antiviral activity against DENV-2 infected in human Huh-7 cells at MOI 1 assessed as reduction of intracellular viral titre at 10 uM measured after 2 hrs post infection by RT-PCR analysis; assay type: functional, organism-based
[21] = test system: dengue virus type 2; test: Antiviral activity against DENV-2 infected in human Huh-7 cells assessed as reduction of viral protein NS3 expression at 10 uM for 12 hrs post infection by RT-PCR analysis; assay type: functional, organism-based
[22] = test system: dengue virus type 2; test: Antiviral activity against DENV-2 infected in human Huh-7 cells at MOI 1 assessed as reduction of intracellular viral titre at 10 uM during infection measured after 48 hrs measured by RT-PCR analysis; assay type: functional, organism-based
[23] = test system: dengue virus type 2; test: Antiviral activity against DENV-2 infected with hamster BHK-21 cells; assay type: functional, organism-based
[24] = Cytotoxicity against hamster BHK-21 cells; assay type: toxicity, cell-based, Mesocricetus auratus
[25] = as §1; parameters: species or system dengue virus type 2

| Compound | EC50 [1] | selectivity ratio [2] | CC50 at 48 h [3] | Activity [4] | further results |
| --- | --- | --- | --- | --- | --- |
| O=C(NCc1ccccc1)c1cc(Oc2cccc(Br)c2)ccc1NS(=O)(=O)c1ccc(F)c(F)c1 | 12.5 µM | 3.56 | 44.5 µM |  |  |
| CCCOc1cc(C(=O)NCc2ccccc2)ccc1NS(=O)(=O)c1cccc2cccnc12 |  |  |  | 0% |  |
| CCCOc1ccc(NS(=O)(=O)c2cccc3cccnc23)c(C(=O)NC(CC)CC)c1 | 2.2 µM | > 45 | > 100 µM |  |  |
| COc1ccc(NS(=O)(=O)c2cccc3cccnc23)c(C(=O)NCc2ccccc2)c1 | 4.8 µM | > 20.8 | > 100 µM |  |  |
| O=C(NCc1ccccc1)c1ccccc1NS(=O)(=O)c1cccc2cccnc12 |  |  |  | 0% |  |
| O=C(NCc1ccccc1)c1cc(Oc2cccc(Br)c2)ccc1NS(=O)(=O)c1cccnc1 |  |  |  | 12.5% |  |
| O=C(NCc1ccccc1)c1cc(Oc2cccc(Br)c2)ccc1NS(=O)(=O)N1CCOCC1 |  |  |  | 0% |  |
| CCCOc1ccc(NS(=O)(=O)c2cccc3cccnc23)c(C(=O)N(CC)Cc2ccccc2)c1 |  |  |  | 25% |  |
| O=C(NCc1ccccc1)c1cc(OCC2CCCCC2)ccc1NS(=O)(=O)c1cccc2cccnc12 |  |  |  | 45% |  |
| CCCOc1ccc(NS(=O)(=O)c2cccc3cccnc23)c(C(=O)NCCc2ccccc2)c1 | 2.2 µM | > 45.5 | > 100 µM |  |  |
| CCCOc1ccc(NS(=O)(=O)c2cccc3cccnc23)c(C(=O)NCc2ccccc2)c1 |  |  | > 100 µM |  | inhibition [6]: inactive; EC50 [7]: 1.38 µM; CC50 [8]: > 100 µM; log(activity) [9]: 3; EC50 [10]: > 10 µM; EC50 [11]: 0.18 µM; CC50 [12]: > 100 µM; Activity [13]: inactive; EC50 [14]: 1.09 µM; CC50 [15]: > 25 µM; CC50 [16]: > 100 µM; CC50 [17]: > 100 µM; Activity [18]: Active; Activity [19]: Active; Activity [20]: Active; Activity [21]: Active; Activity [22]: inactive; EC50 [23]: 20 µM; CC50 [24]: > 25 µM |
| O=C(NCc1ccccc1)c1cc(Oc2cccc(Br)c2)ccc1NS(=O)(=O)c1cccs1 |  |  |  | 0% |  |
| CCCOc1ccc(NS(=O)(=O)c2cccc3cccnc23)c(C(=O)NCCN2CCCCC2)c1 |  |  |  | 20% |  |
| CCCOc1ccc(NS(=O)(=O)c2cccc3cccnc23)c(C(=O)NC2CCC2)c1 | 2.5 µM | > 40 | > 100 µM |  |  |
| O=C(OC1=CS(=O)(=O)Nc2ccc(Oc3ccccc3Br)cc21)c1ccc(F)c(F)c1 |  |  |  |  | IC50 [25]: 18.4 µM |
| CCc1cccc(Oc2ccc(NS(C)(=O)=O)c(C(=O)NCc3ccc(F)c(F)c3)c2)c1 | 33.9 µM | 1.21 | 41.1 µM |  | inhibition [5]: inactive |
| O=C(NCc1ccccc1)c1cc(Oc2cccc(Br)c2)ccc1NS(=O)(=O)c1ccc2c(c1)CCO2 |  |  |  | 32.5% |  |
| COc1ccc(CNC(=O)c2cc(Oc3cccc(Br)c3)ccc2NS(=O)(=O)c2cccc3cccnc23)cc1OC |  |  |  | 50% |  |
| O=C(NCc1ccc(F)c(F)c1)c1cc(Oc2cccc(Br)c2)ccc1NS(=O)(=O)c1cccc2cccnc12 | 5.6 µM | > 17.8 | > 100 µM |  |  |
| COc1ccc(CNC(=O)c2cc(Oc3cccc(Br)c3)ccc2NS(C)(=O)=O)cc1OC | 48.8 µM | 2.05 | 100 µM |  | inhibition [5]: inactive |
| CCc1cccc(Oc2ccc(NS(=O)(=O)c3cccc4cccnc34)c(C(=O)NCc3ccccc3)c2)c1 | 3 µM | > 32.8 | > 100 µM |  |  |
| O=C(NCc1ccccc1)c1cc(Oc2ccccc2)ccc1NS(=O)(=O)c1cccc2cccnc12 | 3.9 µM | > 25.4 | > 100 µM |  |  |
| COc1ccc(C(=O)NCc2ccccc2)c(NS(=O)(=O)c2cccc3cccnc23)c1 |  |  |  | 0% |  |
| CCCOc1ccc(NS(=O)(=O)c2cccc3ccccc23)c(C(=O)NCc2ccccc2)c1 |  |  |  | 0% |  |
| NC(=O)c1cc(Oc2cccc(Br)c2)ccc1NS(=O)(=O)c1cccc2cccnc12 |  |  |  | 27.5% |  |
| C#C[C@@]1(O)[C@H](O)[C@@H](CO)O[C@H]1n1ccc2c(N)ncnc21 | 0.23 µM | 434 |  |  |  |
| O=C(NCc1ccccc1)c1cc(F)ccc1NS(=O)(=O)c1cccc2cccnc12 |  |  |  | 0% |  |

Continued, in another order:

| EC50 [1] | Compound | selectivity ratio [2] | CC50 at 48 h [3] | Activity [4] | further results |
| --- | --- | --- | --- | --- | --- |
| 17.9 µM | CCc1cccc(Oc2ccc(NS(C)(=O)=O)c(C(=O)N[C@H](C)c3ccccc3)c2)c1 | 2.85 | 51.1 µM |  | inhibition [5]: inactive |
| 6.1 µM | CCCOc1ccc(NS(=O)(=O)c2cccc3cccnc23)c(C(=O)N2CCc3ccccc3C2)c1 | > 16.4 | > 100 µM |  |  |
| 44.9 µM | CCc1cccc(Oc2ccc(NS(C)(=O)=O)c(C(=O)NCc3ccccc3)c2)c1 | 1.75 | 78.6 µM |  | inhibition [5]: inactive |
| 4.4 µM | O=C(Nc1ccccc1)c1cc(Oc2cccc(Br)c2)ccc1NS(=O)(=O)c1cccc2cccnc12 | 14.7 | 64.7 µM |  |  |
| 47.5 µM | CS(=O)(=O)Nc1ccc(Oc2cccc(Br)c2)cc1C(=O)NCc1ccccc1 | 1.39 | 66.4 µM |  | inhibition [5]: inactive |
| 5.9 µM | CCc1cccc(Oc2ccc(NS(=O)(=O)c3cccc4cccnc34)c(C(=O)NCc3ccc4c(c3)OCO4)c2)c1 | > 16.9 | > 100 µM |  |  |
| 1.9 µM | CCCOc1ccc(NS(=O)(=O)c2cccc3cccnc23)c(C(=O)NC2CCCc3ccccc32)c1 (stereo not drawn) | > 52.6 | > 100 µM |  |  |
| 5.6 µM | CCCOc1ccc(NC(=O)c2cccc3cccnc23)c(C(=O)NCc2ccccc2)c1 | > 17 | > 100 µM |  |  |
| 7.3 µM | O=C(NCc1ccccc1)c1cc(Oc2cccc(Br)c2)ccc1NS(=O)(=O)c1cccc2cccnc12 | > 13.6 | > 100 µM |  |  |
| 3.9 µM | CCCOc1ccc(NS(=O)(=O)c2cccc3cccnc23)c(C(=O)NCCCc2ccccc2)c1 | > 25.6 | > 100 µM |  |  |
| 42.6 µM | CS(=O)(=O)Nc1ccc(Oc2cccc(Br)c2)cc1C(=O)NCc1ccc(F)c(F)c1 |  | 40.3 µM |  | inhibition [5]: inactive |
| 8.7 µM | CCCOc1ccc(NS(=O)(=O)c2cccc3cccnc23)c(C(=O)NC2CC2)c1 | > 11 | > 100 µM |  |  |
